Here are results for 78 compounds from PubChem BioAssay AID1189 (EPA DSSTox, 2008).

The source made the active and inactive calls.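 How the source made its calls: active means a tumor-causing dose value with its tumor site reported for any sex and species group of a rodent or other animal cancer study; inconclusive means only studies judged inadequate by the national testing program; inactive means tested in at least one study, none positive.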 Peptide text beside a SMILES is read from it.

The nature of the series: DSSTox (CPDBAS) Carcinogenic Potency Database Summary SingleCellCall Results. Conditions: animal chronic carcinogenicity bioassays, CPDB summary call. The procedure, abridged: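 Categorical carcinogenicity call compiled from published chronic rodent and other animal cancer bioassays; based on the most positive result across experiments for each sex-species, assigned on minimal evidence for or against activity.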
For `CCN(Cc1cccc(S(=O)(=O)O)c1)c1ccc(C(=C2C=CC(=[N+](CC)Cc3cccc(S(=O)(=O)[O-])c3)C=C2)c2ccc(S(=O)(=O)O)cc2)cc1`, the result was active.

Turning to `O=C1C(O)N=C(c2ccccc2F)c2cc(Cl)ccc2N1CCO` (stereo not drawn), the result was inactive. To `CN[C@@H](C)[C@H](O)c1ccccc1` belongs “inactive”; to `O=C1NC(=O)C(c2ccccc2)(c2ccccc2)N1`, “active”; to `Clc1c(Cl)c(Cl)c(Cl)c(Cl)c1Cl`, “active; inactive”. To `Nc1nc(/C=C/c2ccc([N+](=O)[O-])o2)no1` belongs “active”; to `COC(N)=O`, “active”; to `CN(N=O)C(=O)c1ccccc1`, “active; inactive”.

For the compound `CN1[C@@H]2CC[C@H]1CC(OC(=O)C(CO)c1ccccc1)C2` (stereo partly drawn), the outcome is “inactive; active”. To `Cn1c(N)nc2c3cccnc3ccc21` belongs “active; inactive”. On to `O.O=S(=O)([O-])[O-].[Mn+2]`, for which the outcome was inactive.

On to `O=NN1CCCN(N=O)CC1`, for which the result was active. As for `ClC#CCl`, the result was active. To `O=CCBr` belongs “inactive; active”; to `O=NN(CCO)C(=O)NCCCl`, “active”. To `CCCCCCCCCCCCCCCC(=O)CC(=O)CCCCCCCCCCCCCCC` belongs “active”; to `CCC(=O)C(CC(C)N(C)C)(c1ccccc1)c1ccccc1` (stereo not drawn), “inactive”; to `CCCOC(=O)c1cc(O)c(O)c(O)c1`, “inactive”. For `CC(C)(C)NC(=O)[C@H]1CC[C@H]2[C@@H]3CC[C@H]4NC(=O)C=C[C@]4(C)[C@H]3CC[C@]12C`, the outcome was “active; inactive”. Turning to `O=CCCl`, the outcome was active.

Take `c1ccc(-c2ccccc2)cc1`: the outcome is “inactive; active”.

Regarding `CC(=O)OC(OC(C)=O)c1ccc([N+](=O)[O-])o1`, the result was inactive. To `CCCCCN(N=O)C(N)=O` belongs “active”. `CN(N=O)c1ncnc2nc[nH]c12`: the result was active. As to `[N-]=[N+]=CC(=O)OC[C@H](N)C(=O)O`, the result was active. To `O=NN1CCCC1c1ccc[n+]([O-])c1` (stereo not drawn) belongs “active; inactive”; to `C1CCNCC1`, “inactive; active”. On to `CCCCC(CC)COC(=O)c1ccccc1C(=O)OCC(CC)CCCC` (stereo not drawn), for which the result was active.

With `COCCl`, the outcome is “active; inactive”. As to `C=COC(N)=O`, the outcome is “active; inactive”. Regarding `CCCCCCCC/C=C\CCCCCCCC(=O)O`, the result was inactive. Consider `C/C=C\c1ccc(OC)cc1`, for which the outcome was inactive. `CCOC(=O)/C=C\C(=O)OCC`: the outcome was “inactive; active”. In the case of `C1N2CN3CN1CN(C2)C3`, the outcome is “inactive; active”. Regarding `Nc1ccc2c(n1)[nH]c1ccccc12`, the outcome was active.

`COc1ccccc1N1CCN(CCCNc2cc(=O)n(C)c(=O)n2C)CC1`: the outcome was inactive. To `C=CCO` belongs “inactive; active”; to `Nc1ccc2ccccc2c1`, “active”. On to `CC(=O)OC/C=C(\C)CCC=C(C)C`, for which the result was inactive. Regarding `C1CNCCN1`, the result was inactive. With `CN(C)CCN(C)N=O`, the outcome was “active; inactive”. Turning to `O=NN(CCCl)C(=O)N[C@@H]1[C@@H](O)[C@H](O)[C@@H](CO)O[C@@H]1O`, the result was active. To `Cc1cnc2ccc3c(nc(N)n3C)c2n1` belongs “active”. With `Nc1ccc(NCCO)c([N+](=O)[O-])c1`, the outcome was inactive. As for `Cl[C@H]1OCCO[C@@H]1Cl`, the result was inactive. To `Cc1cc(Cc2ccc(N)c(C)c2)ccc1N` belongs “active”; to `Cc1ccccc1OCC(O)CNCCn1cc(C)c(=O)[nH]c1=O` (stereo not drawn), “inactive”. With `Nc1ccc2nc3ccccn3c2n1`, the outcome was “active; inactive”. Take `CCOc1ccc(NC(N)=O)cc1`: the result was active. As to `CN(N=O)c1ccc(N=O)cc1`, the outcome was active.

Take `NNC(=O)c1ccccc1`: the outcome was active. Turning to `COc1cc(/C=N/NC(=O)c2ccncc2)ccc1O`, the outcome is “active; inactive”.

`COP(=O)(OC)OC`: the result was active. On to `Cc1cc(C)c(S(=O)(=O)O)cc1N=Nc1cc(S(=O)(=O)O)c2ccccc2c1O`, for which the result was active. To `C[C@@H]1C/C=C/C=C/C=C/C=C/[C@H](O[C@@H]2O[C@H](C)[C@@H](O)[C@H](N)[C@@H]2O)C[C@@H]2O[C@](O)(C[C@@H](O)C[C@H]3O[C@@H]3/C=C/C(=O)O1)C[C@H](O)[C@H]2C(=O)O` belongs “inactive”; to `C=C1C/C(=C/C)C(=O)O[C@@H]2CCN3CC=C(COC(=O)[C@@]1(O)CO)[C@H]23`, “active; inactive”. Take `CC(C)CN(N=O)C(N)=O`: the outcome was active. Regarding `CC(=O)Nc1ccc2c(c1)Cc1cc(NC(C)=O)ccc1-2`, the result was inactive. To `CC(O)CN(CC(C)O)CC(C)O` (stereo not drawn) belongs “inactive; active”; to `NC(=O)Cc1cccc2ccccc12`, “inactive; active”. To `CN1C(=O)C[C@@H](C(=O)N[C@@H](Cc2cnc[nH]2)C(=O)N2CCC[C@H]2C(N)=O)NC1=O` belongs “inactive; active”. To `CCC(CC)C(=O)NC(N)=O` belongs “inactive; active”. For `COC(=O)[C@H](Cc1ccccc1)NC(=O)[C@@H](N)CC(=O)O` (H-Asp-Phe-OMe), the outcome was inactive.

Consider `O=[N+]([O-])c1ccc(Oc2ccc(Cl)cc2Cl)cc1`, for which the outcome was active. Turning to `CN(C)CCN(Cc1cccs1)c1ccccc1`, the result was inactive. To `OCCO` belongs “inactive”. To `CCC(CC)[N+](=O)[O-]` belongs “active”. Regarding `C[C@H](CCC(=O)O)[C@H]1CC[C@H]2[C@@H]3CC[C@@H]4C[C@H](O)CC[C@]4(C)[C@H]3CC[C@]12C`, the outcome was inactive.

Take `O=P(=O)O`: the result was inactive.

In the case of `CCNc1nc(Cl)nc(NC(C)(C)C#N)n1`, the result was active. To `Nc1ccc(Cl)cc1N` belongs “active”; to `CCOc1ccc(NC(C)=O)cc1`, “active; inactive”. To `CCCN=[N+]([O-])CCC` belongs “active”; to `Cc1noc(NS(=O)(=O)c2ccc(N)cc2)c1C`, “inactive”.

For `O=C1C2(Cl)C3(Cl)C4(Cl)C(Cl)(Cl)C5(Cl)C3(Cl)C1(Cl)C5(Cl)C24Cl` (stereo not drawn), the outcome was “active; inactive”.

Take `COc1ccc([N+](=O)[O-])cc1N=Nc1c(O)c(C(=O)Nc2cccc([N+](=O)[O-])c2)cc2ccccc12`: the outcome is “inactive; active”. To `CCCCCCCCCCCCN=C(N)N` belongs “inactive”; to `CCN(Cc1cccc(S(=O)(=O)O)c1)c1ccc(C(=C2C=CC(=[N+](CC)Cc3cccc(S(=O)(=O)[O-])c3)C=C2)c2ccccc2)cc1`, “active”.
